Tested on: HCV
Assay: Assay of anti-HCV activity in HCV-infected Huh7.5 cells (intracellular HCV RNA by one-step quantitative RT-PCR)
Assay type: cell-based
Details: Hepatitis C virus; compound at 1 μM; Huh7.5 cells infected with HCV; 96 hrs; intracellular HCV RNA vs viral control; read-out: inhibitory activities (inhibitory levels of the compounds against HCV replication)
Protocol: 100 μL Huh7.5 cells were seeded at a density of 1×10^5/mL in a 96-well cell culture plate and incubated in an incubator at 37° C., 5% CO2 and saturated humidity for 6 hrs. Then, while infecting Huh7.5 cells with viral solution containing HCV virus particles, the compounds of the present invention (including all specific compounds listed herein) were added at a concentration of 1 μM, respectively. After continuing incubation for 96 hrs, the total intracellular RNA was extracted separately, and the content of intracellular HCV RNA was measured by one-step quantitative RT-PCR, compared with the RNA level of the viral control, and the inhibition rate of the compounds against HCV was calculated.

SMILES	inhibition at 1 µM
CC(c1ccc(Br)cc1)N1CCN(Cc2cc(N3CCCN(C)CC3)ccc2C(F)(F)F)CC1 (centres unmarked) [Compound 1, 1-(3-((4-(1-(4-bromophenyl)ethyl)piperazin-1-yl)methyl)-4-(trifluoromethyl)phenyl)-4-methyl-1,4-diazepane]	> 75%
CN1CCCN(c2ccc(C(F)(F)F)c(CN3CCN(Cc4ccc(Cl)cc4)CC3)c2)CC1 [Compound 2, 1-(3-((4-(4-chlorobenzyl)piperazin-1-yl)methyl)-4-(trifluoromethyl)phenyl)-4-methyl-1,4-diazepane]	> 75%
CC(c1ccc(F)c(Cl)c1)N1CCN(Cc2cc(N3CCCN(C)CC3)ccc2C(F)(F)F)CC1 (centres unmarked) [Compound 3, 1-(3-((4-(1-(3-chloro-4-fluorophenyl)ethyl)piperazin-1-yl)methyl)-4-(trifluoromethyl)phenyl)-4-methyl-1,4-diazepane]	> 75%
Cc1cc(CN2CCN(Cc3cc(N4CCCN(C)CC4)ccc3C(F)(F)F)CC2)ccc1Cl [Compound 4, 1-(3-((4-(4-chloro-3-methylbenzyl)piperazin-1-yl)methyl)-4-(trifluoromethyl)phenyl)-4-methyl-1,4-diazepane]	> 75%
CCCC(c1ccc(OC)cc1)N1CCN(Cc2cc(N3CCCN(C)CC3)ccc2C(F)(F)F)CC1 (centres unmarked) [Compound 5, 1-(3-((4-(1-(4-methoxyphenyl)butyl)piperazin-1-yl)methyl)-4-(trifluoromethyl)phenyl)-4-methyl-1,4-diazepane]	> 75%
CN1CCN(c2ccc(C(F)(F)F)c(CN3CCN(Cc4ccc(Cl)c(Cl)c4)CC3)c2)CC1 [Compound 6, 1-(3,4-dichlorobenzyl)-4-(5-(4-methylpiperazin-1-yl)-2-(trifluoromethyl)benzyl)piperazine]	> 75%
CN1CCCN(c2ccc(C(F)(F)F)c(CN3CCC(Cc4ccc(Cl)cc4)CC3)c2)CC1 [Compound 7, 1-(3-((4-(4-chlorobenzyl)piperidin-1-yl)methyl)-4-(trifluoromethyl)phenyl)-4-methyl-1,4-diazepane]	50 to 75%
CCC(c1ccc(Br)cc1)N1CCN(Cc2cc(N(C)CCN(C)C)ccc2C(F)(F)F)CC1 (centres unmarked) [Compound 8, N^1-(3-((4-(1-(4-bromophenyl)propyl)piperazin-1-yl)methyl)-4-(trifluoromethyl)phenyl)-N^1,N^2,N^2-trimethylethan-1,2-diamine]	> 75%
CC(c1ccc(Cl)cc1)N1CCN(Cc2cc(N(C)CCN(C)C)ccc2C(F)(F)F)CC1 (centres unmarked) [Compound 9, N^1-(3-((4-(1-(4-chlorophenyl)ethyl)piperazin-1-yl)methyl)-4-(trifluoromethyl)phenyl)-N^1,N^2,N^2-trimethylethan-1,2-diamine]	> 75%
Cc1ccc(CN2CCN(Cc3cc(N(C)CCN(C)C)ccc3C(F)(F)F)CC2)cc1 [Compound 10, N^1,N^1,N^2-trimethyl-N^2-(3-((4-(4-methylbenzyl)piperazin-1-yl)methyl)-4-(trifluoromethyl)phenyl)ethan-1,2-diamine]	50 to 75%
CCN1CCN(c2ccc(C#N)c(CN3CCN(Cc4ccc(Cl)c(C)c4)CC3)c2)CC1 [Compound 11, 2-((4-(4-chloro-3-methylbenzyl)piperazin-1-yl)methyl)-4-(4-ethylpiperazin-1-yl)benzonitrile]	50 to 75%
N#Cc1ccc(N2CCN(C3CC3)CC2)cc1CN1CCN(Cc2ccc(Cl)cc2)CC1 [Compound 12, 2-((4-(4-chlorobenzyl)piperazin-1-yl)methyl)-4-(4-cyclopropylpiperazin-1-yl)benzonitrile]	50 to 75%
CCN(C)CCN(C)c1ccc(C#N)c(CN2CCN(C(C)c3ccc(Cl)cc3)CC2)c1 (centres unmarked) [Compound 13, 2-((4-(1-(4-chlorophenyl)ethyl)piperazin-1-yl)methyl)-4-((2-(ethyl(methyl)amino)ethyl)(methyl)amino)benzonitrile]	> 75%
CC(c1ccccc1)N1CCN(Cc2cc(N3CCCC(N(C)C)C3)ccc2C#N)CC1 (centres unmarked) [Compound 14, 4-(3-(dimethylamino)piperidin-1-yl)-2-((4-(1-phenylethyl)piperazin-1-yl)methyl)benzonitrile]	50 to 75%
CC(c1ccc(C(F)(F)F)cc1)N1CCN(Cc2cc(N(C)CCN(C)C)ccc2C#N)CC1 (centres unmarked) [Compound 15, 4-((2-(dimethylamino)ethyl)(methyl)amino)-2-((4-(1-(4-(trifluoromethyl)phenyl)ethyl)piperazin-1-yl)methyl)benzonitrile]	> 75%
CC(C)C(c1ccc(Cl)cc1)N1CCN(Cc2cc(N(C)CCN3CCCC3)ccc2C#N)CC1 (centres unmarked) [Compound 16, 2-((4-(1-(4-chlorophenyl)-2-methylpropyl)piperazin-1-yl)methyl)-4-(methyl(2-(pyrrolidin-1-yl)ethyl)amino)benzonitrile]	> 75%

SMILES	inhibition at 1 µM
CCN(CC)CCN(C)c1ccc(C#N)c(CN2CCN(Cc3ccc(F)c(Cl)c3)CC2)c1 [Compound 17, 2-((4-(3-chloro-4-fluorobenzyl)piperazin-1-yl)methyl)-4-((2-(diethylamino)ethyl)(methyl)amino)benzonitrile]	> 75%
N#Cc1ccc(NCCCn2cccc2)cc1CN1CCN(Cc2ccc(Cl)c(Cl)c2)CC1 [Compound 18, 4-((3-(1H-pyrrol-1-yl)propyl)amino)-2-((4-(3,4-dichlorobenzyl)piperazin-1-yl)methyl)benzonitrile]	> 75%
CN(C)CCN(C)c1ccc(C(F)(F)F)c(CN2CCN(c3ccc(Cl)cc3)CC2)c1 [Compound 19, N^1-(3-((4-(4-chlorophenyl)piperazin-1-yl)methyl)-4-(trifluoromethyl)phenyl)-N^1,N^2,N^2-trimethylethan-1,2-diamine]	> 75%
CN(C)CCN(C)c1ccc(C(F)(F)F)c(CN2CCN(c3ccc(Br)cc3)CC2)c1 [Compound 20, N^1-(3-((4-(4-bromophenyl)piperazin-1-yl)methyl)-4-(trifluoromethyl)phenyl)-N^1,N^2,N^2-trimethylethan-1,2-diamine]	> 75%
CN(CC1CCCCN1C)c1ccc(C(F)(F)F)c(CN2CCN(c3ccc(Cl)cc3)CC2)c1 (centres unmarked) [Compound 21, 3-((4-(4-chlorophenyl)piperazin-1-yl)methyl)-N-methyl-N-((1-methylpiperidin-2-yl)methyl)-4-(trifluoromethyl)aniline]	> 75%
CC1CN(c2ccc(Cl)cc2)CCN1Cc1cc(N2CCCN(C)CC2)ccc1C(F)(F)F (centres unmarked) [Compound 22, 1-(3-((4-(4-chlorophenyl)-2-methylpiperazin-1-yl)methyl)-4-(trifluoromethyl)phenyl)-4-methyl-1,4-diazepane]	> 75%
CN1CCCN(c2ccc(C(F)(F)F)c(CN3CCN(c4ccc(Cl)cc4)CC3)c2)CC1 [Compound 23, 1-(3-((4-(4-chlorophenyl)piperazin-1-yl)methyl)-4-(trifluoromethyl)phenyl)-4-methyl-1,4-diazepane]	> 75%
CN(CC1CCCN1C)c1ccc(C(F)(F)F)c(CN2CCN(c3ccc(Br)cc3)CC2)c1 (centres unmarked) [Compound 24, 3-((4-(4-bromophenyl)piperazin-1-yl)methyl)-N-methyl-N-((1-methylpyrrolidin-2-yl)methyl)-4-(trifluoromethyl)aniline]	> 75%
CCN1CCCC1CN(C)c1ccc(C(F)(F)F)c(CN2CCN(c3ccc(Cl)cc3)CC2)c1 (centres unmarked) [Compound 25, 3-((4-(4-chlorophenyl)piperazin-1-yl)methyl)-N-((1-ethylpyrrolidin-2-yl)methyl)-N-methyl-4-(trifluoromethyl)aniline]	> 75%
CN(C)CCN(C)c1ccc(C(F)(F)F)c(CN2CCN(c3ccc(Br)c(Cl)c3)CC2)c1 [Compound 26, N^1-(3-((4-(4-bromo-3-chlorophenyl)piperazin-1-yl)methyl)-4-(trifluoromethyl)phenyl)-N^1,N^2,N^2-trimethylethan-1,2-diamine]	> 75%
CN(C)C1CCN(c2ccc(C(F)(F)F)c(CN3CCN(c4ccc(Cl)cc4)CC3)c2)CC1 [Compound 27, 1-(3-((4-(4-chlorophenyl)piperazin-1-yl)methyl)-4-(trifluoromethyl)phenyl)-N,N-dimethylpiperidin-4-amine]	> 75%
FC(F)(F)c1ccc(N2CCC(N3CCCC3)CC2)cc1CN1CCN(c2ccc(Cl)cc2)CC1 [Compound 28, 1-(4-chlorophenyl)-4-(5-(4-(pyrrolidin-1-yl)piperidin-1-yl)-2-(trifluoromethyl)benzyl)piperazine]	> 75%
CN(C)C1CCN(c2ccc(C(F)(F)F)c(CN3CCN(c4ccc(Cl)cc4)CC3)c2)C1 (centres unmarked) [Compound 29, 1-(3-((4-(4-chlorophenyl)piperazin-1-yl)methyl)-4-(trifluoromethyl)phenyl)-N,N-dimethylpyrrolidin-3-amine]	> 75%
CN1CCN(c2ccc(C(F)(F)F)c(CN3CCN(c4ccc(Cl)cc4)CC3)c2)CC1 [Compound 30, 1-(4-chlorophenyl)-4-(5-(4-methylpiperazin-1-yl)-2-(trifluoromethyl)benzyl)piperazine]	> 75%
CC1CN(c2ccc(Cl)cc2)CCN1Cc1cc(N(C)CN2CCCCC2)ccc1C(F)(F)F (centres unmarked) [Compound 31, 3-((4-(4-chlorophenyl)-2-methylpiperazin-1-yl)methyl)-N-methyl-N-(piperidin-1-ylmethyl)-4-(trifluoromethyl)aniline]	> 75%
CC1CN(c2ccc(Cl)c(C(F)(F)F)c2)CCN1Cc1cc(N2CCCN(C)CC2)ccc1C(F)(F)F (centres unmarked) [Compound 32, 1-(3-((4-(4-chloro-3-(trifluoromethyl)phenyl)-2-methylpiperazin-1-yl)methyl)-4-(trifluoromethyl)phenyl)-4-methyl-1,4-diazepane]	> 75%
